Measured values from patent US8513227B2, “Inhibition of inflammatory cytokine production with tanshinones” (The Feinstein Institute for Medical Research, priority 2006, dated 2013).

Experiments:
lethal endotoxemia = assay: Lethal endotoxemia in Balb/C mice (LPS 15 mg/kg i.p.); assay type: in vivo
Experimental: (§1) Animal models of endotoxemia and sepsis. This study was approved and performed in accordance with the guidelines for the care and use of laboratory animals at the Feinstein Institute for Medical Research, Manhasset, N.Y. Endotoxemia was induced in Balb/C mice (male, 7-8 weeks) by intraperitoneal injection of bacterial endotoxin (LPS, 15 mg/kg) as previously described (Chen et al. 2005; Wang et al. 1999; Wang et al. 2006). Sepsis was induced in male Balb/C mice (7-8 weeks, 20-25 g) or Sprague-Dawley rats (290-310 g) by cecal ligation and puncture (CLP) as previously described (Wang et al. 2006; Yang et al. 2002b). Herbal components were administered intraperitoneally into mice at indicated doses and time points, and mice were monitored for survival for up to two weeks. In parallel experiments, mice were euthanized to collect blood at 28 h (following two doses of herbal components at −0.5 and +24 h) after endotoxemia, and at 52 h (following two doses of herbal components at +24 and +48 h) after CLP.
HMGB1 western blotting analysis. The levels of HMGB1 in the culture medium or serum were determined by western blotting analysis as previously described (Chen et al. 2004; Rendon-Mitchell et al. 2003; Wang et al. 1999). The relative band intensity was quantified using NIH image 1.59 software to determine HMGB1 levels with reference to standard curves generated with purified HMGB1.

HMGB1 [1] = assay: HMGB1-induced release of TNF and nitric oxide in murine macrophage cultures; assay type: cell-based; details: concentrations up to 100 μM, preliminary data
HMGB1 [2] = assay: Endotoxin-induced HMGB1 cytoplasmic translocation (immunocytochemistry, cell fractionation/western blot); assay type: cell-based, murine
Experimental: Immunocytochemistry and cell fractionation/western blot. At 16 h after LPS stimulation, cellular HMGB1 was immunostained with anti-HMGB1 polyclonal antibodies, and images were acquired using fluorescent microscope (Carl Zeiss Microimaging, Inc., Thomwood, N.Y.) as previously described (Chen et al. 2004; Rendon-Mitchell et al. 2003). Alternatively, localization of HMGB1 was examined by a cell fractionation/western blotting technique as previously described (Tang et al. 2006). Cell fractionation is based on differential lysis of plasma and nuclear membranes by nonionic detergent (NP-40). Briefly, after selective lysis of the plasma membrane in low salt buffer (10 mM HEPES, pH 7.9; 10 mM KCl; 0.1 mM EDTA; 0.1 mM EGTA; 1 mM DTT; 0.5 mM PMSF, 1% NP-40), the intact nuclei was collected by a quick centrifugation step (7,000 g, 1 min, 4° C.), leaving the cytoplasmic fraction in the supernatant. The nuclei pellet was resuspended in NP-40 high salt buffer (20 mM HEPES, pH 7.9; 0.4 M NaCl; 1 mM EDTA; 1 mM EGTA; 1 mM DTT; 1 mM PMSF, 1% NP-40), and briefly sonicated to generate the nuclear fraction. After fractionation, the protein content of different fractions was determined by the Bradford method, and each fraction was assayed for levels of various protein by western blotting analysis using primary antibodies specific for HMGB1, a cytoplasmic protein (βactin, Santa Cruz Biotechnology), and a nuclear protein (PCNA, BD Biosciences).

TNF = assay: LPS-mediated TNF secretion in RAW 264.7 macrophages (ELISA); assay type: cell-based, murine; details: macrophages stimulated with LPS >200 ng/ml
Experimental: Cell culture. Murine macrophage-like RAW 264.7 cells were obtained from the American Type Culture Collection (ATCC, Rockville, Md.), and primary peritoneal macrophages were isolated from Balb/C mice (male, 7-8 weeks, 20-25 grams) at 2-3 days after intraperitoneal injection of 2 ml thioglycollate broth (4%) as previously described (Chen et al. 2004; Rendon-Mitchell et al. 2003). Murine macrophages were pre-cultured in RPMI 1640 medium (Gibco BRL, Grand Island, N.Y.) supplemented with 10% fetal bovine serum (FBS) and 2 mmol/L glutamine. Human peripheral blood mononuclear cells (HuPBMCs) were isolated from the blood of healthy donors (Long Island Blood Bank, Melville, N.Y.) by density gradient centrifugation through Ficoll (Ficoll-Paque PLUS, Pharmacia, Piscataway, N.J.), and cultured in RPMI 1640 supplemented with 10% heat-inactivated human serum/0.2 mM L-glutamine as previously described (Rendon-Mitchell et al. 2003). LPS stimulation. […] The levels of TNF in the culture medium or serum were determined using commercial enzyme linked immunosorbent assay (ELISA) kits (Catalog no. MTA00, R & D Systems, Minneapolis, Minn.) with reference to standard curves of purified recombinant TNF at various dilutions as previously described (Chen et al. 2004; Rendon-Mitchell et al. 2003; Wang et al. 2006).

[3] = tested on: sepsis-induced cardiovascular dysfunction; assay: Sepsis-induced cardiovascular dysfunction in CLP rats (radiolabeled microspheres); assay type: in vivo, Sprague-Dawley rats; details: 20 h after CLP
Experimental: as §1
Measurement of cardiac output. A radiolabeled microsphere technique was used to measure cardiac output at 20 h after CLP or sham operation as previously described (Yang et al. 2002b). Briefly, a bolus of ^141Ce-labeled microspheres (4.0 μCi, DuPont NEN, Boston, Mass.) was injected into the left ventricle, where it mixed uniformly with the oxygenated blood at the root of the aorta, and subsequently distributed via aortic blood flow to the capillary beds within each organ. The reference blood sample was withdrawn from the femoral arterial catheter (at a rate of 0.7 ml/min) with a pump (Harvard Apparatus, Holliston, Mass.), after which isotonic sodium chloride solution was infused manually to replace the volume of blood lost. At 20 h post CLP, animals were sacrificed to harvest various organs for measurement of radioactivity with an automatic gamma counter (1470 Wizard; Wallac, Gaithersburg, Md.). Cardiac output and organ blood flow were calculated according to the following equations: cardiac output=[(RBF×CT)/Cr]× 1/100 and organ blood flow=[(RBF×Ct)/Cr]× 1/100, where RBF is the reference blood sample withdrawal rate (0.7 ml/min), CT is counts per minute of total injected dose, Ct is counts per minute per gram of tissue, and Cr is counts per minute in the reference blood sample. Stroke volume (SV) and total peripheral resistance (TPR) were calculated as previously described (Yang et al. 2002b).

Cc1c(S(=O)(=O)[O-])oc2c1C(=O)C(=O)c1c-2ccc2c1CCCC2(C)C.[Na+] [TSNIIA-SS, tanshinone IIA sodium sulfonate]
circulating HMGB1 levels, endotoxemia (lethal endotoxemia; LPS+vehicle 140±20 ng/ml, n=10, p<0.01): 40 ± 25 ng/mL
animal survival, lethal endotoxemia (lethal endotoxemia; repeated doses (+0.5, +24, +48, 72 hr), dose-dependent, control 20%, FIG. 6A): 80%
animal survival rate, lethal endotoxemia (lethal endotoxemia; single dose 15 mg/kg 30 minutes after LPS, saline control 25%, P>0.05): 37.5%
attenuation of HMGB1-induced release of TNF (HMGB1 [1]): 50-60%
attenuation of HMGB1-induced release of nitric oxide (HMGB1 [1]): 90-95%
levels of HMGB1 in the cytoplasmic fractions after LPS (HMGB1 [2]; cell fractionation/western blot, FIG. 4B): dramatically reduced
effect on LPS-induced HMGB1 cytoplasmic translocation (HMGB1 [2]; immunostaining 16 h post LPS, 100 μM, FIG. 4A): almost completely abrogated
effect on nuclear localization of HMGB1 in resting cells (HMGB1 [2]; resting cells, data not shown): did not affect
inhibitory effects on TNF release at higher LPS (TNF): often lost
heart rate ([3]; 15 mg/kg, CLP group 378.3±25.1, n=6, p<0.05): 334.1±25.8 beats/minutes
total peripheral vascular resistance ([3]; FIG. 8A): dose-dependently reduced
cardiac stroke volume ([3]; FIG. 8B): significantly increased
cardiac output ([3]; FIG. 8C): significantly increased
mean arterial blood pressure ([3]; CLP group 106.1±4.7, n=6, p>0.05): 96.4±8.7 mm Hg
